Patent EP0428272A2, “Trifluorobenzodiazepine compounds for use in therapy by intraoral administration” (Ellinwood, Everett Hews, priority 1989, dated 1991)
Where two headings read alike, the source gives them in different places.

What was measured:
[1] = Concentration in blood after a single sublingual or per oral swallowed dose of halazepam 20 mg standard tablet; assay type: in vivo, volunteer adult humans; conditions: sublingual administration of halazepam versus oral
Procedure: Test results will now be described. Testing was carried out using volunteer adult humans. Standard tablets containing, as active ingredient, solely quazepam or solely halazepam, were used. […]

[2] = Pharmacokinetics in blood plasma after a single sublingual or per oral swallowed dose of quazepam 15 mg standard tablet; assay type: in vivo, volunteer adult humans; conditions: for half-life / Tmax / Cmax / AUC: human; for half-life: plasma, 15 mg; for half-life / Tmax / Cmax / AUC / CL/F / Lag time: mean ± SD; for Tmax: time to Cmax; for Cmax: quazepam peak plasma concentration; for AUC: quazepam, area under plasma concentration-time curve; for CL/F: quazepam clearance
Procedure: Test results will now be described. Testing was carried out using volunteer adult humans. Standard tablets containing, as active ingredient, solely quazepam or solely halazepam, were used. Such tablets were intended by their manufacturers to be swallowed but dissolved adequately in the mouth to permit the intraoral testing. • Figure 1 is a graph illustrating the concentration of quazepam (Q) and N-desalkyl-2-oxoquazepam (DOQ) in the blood plasma over 96 hours following a single sublingual dose (SL) or per oral swallowed dose (PO) of quazepam in a 15 mg standard tablet. • Figure 2 is a graph illustrating the concentration of quazepam (Q) and N-desalkyl-2-oxoquazepam (DOQ) in the blood plasma over 210 hours following a single sublingual dose (SL) or per oral swallowed dose (PO) of quazepam in a 15 mg standard tablet. • Figure 3 is a graph of computer simulated concentration levels of quazepam and N-desalkyl-2-oxoquazepam in the blood following sublingual and oral swallowed doses of quazepam (15 mg standard tablet) once a day for a 15 day period illustrating the marked reduction in accumulated levels of desalkyloxoquazepam with sublingual dosing; • Figure 4 is a graph illustrating the concentration of halazepam (HZ) and N-desalkyl-3-hydroxy-halazepam (ND) in the blood over 96 hours following a single sublingual dose (SL) or per oral swallowed dose (PO) of halazepam in a 20 mg standard tablet. • Figure 5 is a graph illustrating the concentration of halazepam (HZ) and N-desalkyl-3-hydroxy-halazepam (ND) in the blood over 240 hours following a single sublingual dose (SL) or per oral swallowed (PO) of halazepam in a 20 mg standard tablet; and • Figure 6 is a flow chart of the method of the present invention.
This change in concentrations for the two compounds can be seen with reference to Figure 1 and Figure 2 of the drawings where the differences in the parent compound Q and the metabolite DOQ for both the oral and sublingual dosing is shown. In Figure 3, by use of standard mutliple Q dose simulations, the differences in accumulation of Q and DOQ for sublingual versus oral dosing over 15 days is shown. With chronic dosing it is readily apparent that after 15 days the DOQ level, following oral administration, has reached levels that are associated with the threshold for impairing ataxic and incoordination affects (especially if larger doses are given).
In Table 1 and Table 2, set forth below, the average pharmacokinetic parameters for both Q and DOQ for both oral and sublingual routes of administration are set forth: TABLE I

[3] = quazepam in plasma, oral quazepam 15 mg
[4] = quazepam in plasma, sublingual quazepam 15 mg

Structure (SMILES): O=C1Nc2ccc(Cl)cc2C(c2ccccc2)=NC1O (stereo not shown) [N-dealkyl-hydroxy-halazepam, N-desalkyl-3-hydroxy-halazepam]
- level of metabolite N-dealkyl-hydroxy-halazepam [1]: reducing

Structure (SMILES): Fc1ccccc1C1=NCC(=S)N(CC(F)(F)F)c2ccc(Cl)cc21 [quazepam, 7-chloro-1-(2,2,2-trifluorethyl)-5-(o-fluorophenyl)-1,3-dihydro-2H-1,4-benzodiazepine-2-thione]
- half-life ([2]; quazepam in plasma, absorption half-life, sublingual quazepam 15 mg, read-out: t1/2 Ka (converted)): 0.27 ± 0.1 h
- half-life ([2]; quazepam in plasma, rapid distribution half-life, sublingual quazepam 15 mg, read-out: t1/2 λ₁ (converted)): 1.44 ± 0.45 h
- half-life ([2]; quazepam in plasma, terminal elimination half-life, sublingual quazepam 15 mg, read-out: t1/2 λ₂ (converted)): 27.7 ± 7.18 h
- half-life ([2]; po, quazepam in plasma, absorption half-life, oral quazepam 15 mg, read-out: t1/2 Ka (converted)): 0.77 ± 0.23 h
- half-life ([2]; po, quazepam in plasma, rapid distribution half-life, oral quazepam 15 mg, read-out: t1/2 λ₁ (converted)): 1.73 ± 0.65 h
- half-life ([2]; po, quazepam in plasma, terminal elimination half-life, oral quazepam 15 mg, read-out: t1/2 λ₂ (converted)): 24.6 ± 8.35 h
- Tmax [2, 3]: 2.57 ± 1.69 h
- Tmax [2, 4]: 0.78 ± 0.31 h
- Cmax ([2]; oral quazepam 15 mg): 26.7 ± 6.83 ng/mL
- Cmax ([2]; sublingual quazepam 15 mg): 42.4 ± 10.4 ng/mL
- AUC ([2]; oral quazepam 15 mg): 473 ± 239 ng·h/mL
- AUC ([2]; sublingual quazepam 15 mg): 1460 ± 299 ng·h/mL
- CL/F ([2]; oral quazepam 15 mg): 37.56 ± 16.89 h⁻¹
- CL/F ([2]; sublingual quazepam 15 mg): 8.78 ± 5.25 h⁻¹
- Lag time [2, 3]: 0.52 ± 0.28 h
- Lag time [2, 4]: 0.18 ± 0.05 h
- increase of availability of quazepam ([2]; sublingual dosing in contrast to oral dosing of quazepam): about 60%

Structure (SMILES): O=C1CN=C(c2ccccc2F)c2cc(Cl)ccc2N1 [N-DESALKYL-2-OXOQUAZEPAM, N-desalkyl-2-oxoquazepam]
- Lag time ([2]; metabolite N-desalkyl-2-oxoquazepam in plasma, oral quazepam 15 mg): 0.66 ± 0.32 h
- Lag time ([2]; metabolite N-desalkyl-2-oxoquazepam in plasma, sublingual quazepam 15 mg): 1.74 ± 0.86 h
- DOQ level relative to oral quazepam administration levels ([2]; sublingual dosing of quazepam versus oral): about one-half

Structure (SMILES): O=C1CN=C(c2ccccc2)c2cc(Cl)ccc2N1CC(F)(F)F [halazepam, 7-chloro-1,3 dihydro-5-phenyl-1-1-(2,2,2-trifluoroethyl)-2H-1,4-benzodiazepine-2-one]
- availability of halazepam [1]: significantly increased
